Measured values as given in patent US8258182B2, “Substituted 1,3-diphenylpropane derivatives, preparations and uses thereof” (Genfit, priority 2006, dated 2012).

Legend:
ApoE2/E2 mice = assay: Plasma lipids in dyslipidemic ApoE2/E2 mice after per os treatment; type: in vivo, mouse; details: 50 mpk per os, 8 days
Protocol: The dyslipidemic E2/E2 mouse's rates of total cholesterol, of triglycerides, and plasma free fatty acids are measured after 8 or 14 days of a per os treatment with the compounds according to the invention.
The hypolipidemic properties of the compounds according to the invention are evaluated in vivo by assaying plasma lipids and the analysis of the PPARs target genes expression in the liver after a treatment treating of the dyslipidemic E2/E2 mice with the compounds according to the invention.
The murine model used is the ApoE2/E2 mouse, a transgenic mouse having the human apolipoprotein E isoform E2 (Sullivan P M et al., 1998). In human, this apolipoprotein, a constituent of low and very low density lipoproteins (LDL-VLDL), is present in three isoforms E2, E3, and E4. The E2 form presents a mutation affecting the amino acid in position 158, which considerably weakens the affinity of this protein for LDL receptors. Accordingly, the VLDL clearance is nearly non-existent. An accumulation of low-density lipoproteins then occurs along with a mixed hyperlipidemia known as type III (elevated cholesterol and triglycerides).
The ApoE2/E2 transgenic mice were kept on a 12 hour/12 hour light/dark cycle at a constant temperature of 20±3° C. After a one week acclimatization period, the mice were weighed and divided into groups of 6 animals selected so as to render uniform the distribution of their body weights and plasma lipid rates, determined before the experiment. The tested compounds were suspended in carboxymethylcellulose (Sigma C4888) and administered by intra-gastric tube feeding once a day for 8 days (for compound 1) or 14 days (for compound 8) with the chosen doses. […] Taking of food and weight gain are recorded throughout the experiment. […]
Plasma lipid concentrations (total cholesterol and triglycerides) are measured by enzymatic doses (bioMérieux-Lyon-France) according to the provider's recommendations.
Plasma cholesterol and triglycerides rates are measured after 8 or 14 days of a per os treatment with the compounds according to the invention. […]

[1] = test system: PPARs target genes (PDK4, ApoCIII, ACO) in the hepatic tissue; assay: Hepatic expression of PPAR target genes in E2/E2 mice (quantitative RT-PCR); type: in vivo, mouse; details: 50 mpk
Protocol: The effectiveness of the compounds according to the invention is also evaluated by measuring, in the hepatic tissue, the expression of genes involved in lipid and/or glucids metabolism and in energy dissipation. Each level of genes expression is normalised regarding the expression level of the reference gene 36B4's. The induction factor, i.e. the ratio between the relative signal (induced by the compound according to the invention) and the average of the relative values relating to the control group is then calculated. The higher the induction factor is, the more the compound promotes hepatic gene expression. The final result is expressed as an average of the induction values obtained with each experimental group.
The PPARα agonist properties previously measured in vitro should, in the liver, lead to an overexpression of the target genes directly under the control of the PPARα: the genes we have studied in this experiment are PDK-4 (an enzyme involved in glucid metabolism), Apo CIII (an apolipoprotein involved in lipid metabolism), and Acox1 (in mice, Acox1 corresponds to the ACO gene in humans (Acyl Co-enzymeA Oxydase, an enzyme key to the fatty acid β-oxidation mechanism)). Measuring the transcriptional activity of PPARα target genes after a treatment with compounds according to the invention does therefore allow to evaluate the hypolipidemic properties of the compounds according to the invention.
The ApoE2/E2 transgenic mice were kept on a 12 hour/12 hour light/dark cycle at a constant temperature of 20±3° C. After a one week acclimatization period, the mice were weighed and divided into groups of 6 animals selected so as to render uniform the distribution of their body weights and plasma lipid rates, determined before the experiment. The tested compounds were suspended in carboxymethylcellulose (Sigma C4888) and administered by intra-gastric tube feeding once a day for 8 days (for compound 1) or 14 days (for compound 8) with the chosen doses. The animals had free access to food and water (standard diet). Taking of food and weight gain are recorded throughout the experiment. At the end of the experiment, the animals were anesthetized after a 4 hour fast, and a blood sample was taken using (EDTA) anticoagulant, then the mice were weighed and euthanized. The plasma was separated by centrifugation at 3000 rotations/minute for 20 minutes. The samples were kept at +4° C.
Liver samples were removed, frozen in liquid nitrogen, and kept at −80° C. for later analyses.
Total RNA is extracted from liver fragments by using the NucleoSpin® 96 RNA kit (Macherey Nagel, Hoerdt, France) according to the manufacturer's instructions.
1 μg of total RNA (quantified by using the Ribogreen RNA quantification kit (Molecular Probes)) is then reverse-transcripted into complementary DNA by means of a 1 hour reaction at 37° C. in a total volume of 20 μl containing a 1× buffer (Sigma), 1.5 mM of DTT, 0.18 mM of dNTPs (Promega), 200 ng of pdN6 (Amersham), 30U of RNase inhibitor (Sigma), and 1 μl of MMLV-RT (Sigma).
The PCR quantitative experiments were carried out using the MyiQ Single-Color Real-Time PCR Detection System (Biorad, Marnes-la-Coquette, France) and were performed using the iQ SYBR Green Supermix kit according to the manufacturer's recommendations, in 96-well trays in 5 μl of a diluted reverse transcription solution at a hybridation temperature of 55° C. The specific primer pairs of the genes studied were used: • PDK4: sense primer: 5′-[…]-3′ (SEQ ID NO: 1) and antisense primer 5′-[…]-3′ (SEQ ID NO: 2)) • ApoCIII: sense primer: 5′-[…]-3′ (SEQ ID NO: 3) and antisense primer 5′-[…]-3′ (SEQ ID NO: 4). • ACO: sense primer: 5′-[…]-3′ (SEQ ID NO: 5) and antisense primer: 5′-[…]-3′ (SEQ ID NO: 6)
The quantity of fluorescencet emitted is directly proportional to the quantity of cDNA present at the beginning of the reaction and amplified during the PCR. […]

Question: How did the “plasma total cholesterol rates” value (ApoE2/E2 mice; vs control animals (FIG. 2-1)) turn out when `CSc1ccc(C(=O)CCc2cc(C)c(OC(C)(C)C(=O)O)c(C)c2)cc1` [Compound 1, 2-[2,6-dimethyl-4-[3-[4-(methylthio)phenyl]-3-oxo-propyl]phenoxyl]-2-methylpropanoic acid] was run?
Answer: very significantly decreased

Question: What about the circulating triglycerides rates (ApoE2/E2 mice; vs control animals (FIG. 2-2)) of the same compound?
Answer: very significantly decreased

Question: What about the “hepatic expression of the gene coding for PDK4” value ([1]; 8 days (FIG. 2-4)) of the same compound?
Answer: significant increase

Question: And the “hepatic expression of the gene coding for ApoCIII” value ([1]; 8 days (FIG. 2-5))?
Answer: reduction

Question: What about the “hepatic expression of genes coding for ACO” value ([1]; 8 days (FIG. 2-6)) of the same compound?
Answer: significant augmentation
